Measured values taken from the NIST ThermoML archive (doi:10.1021/acs.jced.5b00789).
“And” between values parts separate entries of the source, which are not always exact repeats. Identical values can stand only once. ± gives the expanded uncertainty stated by the source.

Settings: Liquid

SMILES | mass density (343.2 K, 101.33 kPa) | mass density (353.2 K, 101.33 kPa) | mass density (363.2 K, 101.33 kPa) | mass density (373.2 K, 101.33 kPa) | mass density (293.2 K, 101.33 kPa) | mass density (303.2 K, 101.33 kPa) | mass density (313.2 K, 101.33 kPa) | mass density (323.2 K, 101.33 kPa) | mass density (333.2 K, 101.33 kPa) | mass density (293.2 K) | mass density (303.2 K) | mass density (313.2 K) | mass density (323.2 K) | mass density (333.2 K) | mass density (343.2 K) | mass density (353.2 K) | mass density (363.2 K) | mass density (373.2 K)
CCn1c2ccccc2c2ccccc21 [9-ethylcarbazole] | 1062.78 ± 6.6 kg/m3 and 1062.93 ± 6.6 kg/m3 and 1063.05 ± 6.6 kg/m3 | 1055.37 ± 6.4 kg/m3 and 1055.51 ± 6.4 kg/m3 and 1055.63 ± 6.4 kg/m3 | 1048.06 ± 6.3 kg/m3 and 1048.2 ± 6.3 kg/m3 and 1048.32 ± 6.3 kg/m3 | 1040.99 ± 6.1 kg/m3 and 1041.11 ± 6.1 kg/m3 and 1040.85 ± 6.1 kg/m3 |  |  |  |  |  |  |  |  |  |  |  |  |  | 
CC1CCCCC1 [methylcyclohexane] | 728.38 ± 9.1 kg/m3 and 728.56 ± 9.1 kg/m3 and 728.71 ± 9.1 kg/m3 | 720.64 ± 9.3 kg/m3 and 720.82 ± 9.3 kg/m3 and 720.97 ± 9.3 kg/m3 | 713.07 ± 9.4 kg/m3 and 713.24 ± 9.4 kg/m3 and 713.39 ± 9.4 kg/m3 | 705.65 ± 9.6 kg/m3 and 705.82 ± 9.6 kg/m3 and 705.96 ± 9.6 kg/m3 | 769.72 ± 8.2 kg/m3 and 769.91 ± 8.2 kg/m3 and 770.07 ± 8.2 kg/m3 | 761.08 ± 8.4 kg/m3 and 761.27 ± 8.4 kg/m3 and 761.42 ± 8.4 kg/m3 | 752.63 ± 8.6 kg/m3 and 752.82 ± 8.6 kg/m3 and 752.97 ± 8.6 kg/m3 | 744.55 ± 8.8 kg/m3 and 744.71 ± 8.7 kg/m3 and 744.37 ± 8.8 kg/m3 | 736.29 ± 8.9 kg/m3 and 736.47 ± 8.9 kg/m3 and 736.62 ± 8.9 kg/m3 |  |  |  |  |  |  |  |  | 
Cc1ccccc1 [toluene] |  |  |  |  |  |  |  |  |  | 867.3 ± 6.3 kg/m3 and 867.61 ± 6.3 kg/m3 and 867.8 ± 6.3 kg/m3 | 855.63 ± 6.5 kg/m3 and 855.94 ± 6.5 kg/m3 and 856.12 ± 6.5 kg/m3 | 844.27 ± 6.8 kg/m3 and 844.57 ± 6.8 kg/m3 and 844.75 ± 6.8 kg/m3 | 833.51 ± 7 kg/m3 and 833.68 ± 7 kg/m3 and 833.21 ± 7 kg/m3 | 822.43 ± 7.2 kg/m3 and 822.73 ± 7.2 kg/m3 and 822.9 ± 7.2 kg/m3 | 811.93 ± 7.4 kg/m3 and 812.22 ± 7.4 kg/m3 and 812.39 ± 7.4 kg/m3 | 801.69 ± 7.6 kg/m3 and 801.98 ± 7.6 kg/m3 and 802.15 ± 7.6 kg/m3 | 791.71 ± 7.8 kg/m3 and 792 ± 7.8 kg/m3 and 792.16 ± 7.8 kg/m3 | 781.97 ± 8 kg/m3 and 782.26 ± 8 kg/m3 and 782.42 ± 8 kg/m3
